Assay [1] concerns the target human FAK (Homo sapiens (Human), UniProt Q05397). Conditions: read-out: FAK IC50.
Method: The ability of compounds to inhibit the kinase activity of baculovirus-expressed human FAK and PYK2 was measured using the 96-well plate TRF assay system described above for JAK2. […] For the FAK kinase assay, the reaction mixture (total volume=100 μL/well) contained 20 mM HEPES (pH 7.2), 10 μM ATP, 5 mM MgCl2, 0.5 mM DTT, 0.1% BSA, and test compound (diluted in DMSO; 2.5% DMSO final in assay). For PYK2, the 100 μL assay solution consisted of 20 mM HEPES (pH 7.2), 3 μM ATP, 5 mM MnCl2, 0.1% BSA, and test compound (diluted in DMSO; 2.5% DMSO final in assay). Enzyme (10 ng/mL FAK or 25 ng/mL PYK2) was added and the reaction was allowed to proceed at room temperature for 30 min. Detection of the phosphorylated product was performed by adding 100 μL/well of Eu—N1 labeled PY100 antibody diluted 1:75000 in 0.25% BSA in TBS-T (PerkinElmer #AD0041). […] Inhibition data were analyzed using ActivityBase and IC50 curves generated using XLFit.
Assay [2] addresses human JAK2 (Homo sapiens (Human), UniProt O60674). Conditions: read-out: JAK2 IC50.

Sequence of human FAK (Q05397 whole entry): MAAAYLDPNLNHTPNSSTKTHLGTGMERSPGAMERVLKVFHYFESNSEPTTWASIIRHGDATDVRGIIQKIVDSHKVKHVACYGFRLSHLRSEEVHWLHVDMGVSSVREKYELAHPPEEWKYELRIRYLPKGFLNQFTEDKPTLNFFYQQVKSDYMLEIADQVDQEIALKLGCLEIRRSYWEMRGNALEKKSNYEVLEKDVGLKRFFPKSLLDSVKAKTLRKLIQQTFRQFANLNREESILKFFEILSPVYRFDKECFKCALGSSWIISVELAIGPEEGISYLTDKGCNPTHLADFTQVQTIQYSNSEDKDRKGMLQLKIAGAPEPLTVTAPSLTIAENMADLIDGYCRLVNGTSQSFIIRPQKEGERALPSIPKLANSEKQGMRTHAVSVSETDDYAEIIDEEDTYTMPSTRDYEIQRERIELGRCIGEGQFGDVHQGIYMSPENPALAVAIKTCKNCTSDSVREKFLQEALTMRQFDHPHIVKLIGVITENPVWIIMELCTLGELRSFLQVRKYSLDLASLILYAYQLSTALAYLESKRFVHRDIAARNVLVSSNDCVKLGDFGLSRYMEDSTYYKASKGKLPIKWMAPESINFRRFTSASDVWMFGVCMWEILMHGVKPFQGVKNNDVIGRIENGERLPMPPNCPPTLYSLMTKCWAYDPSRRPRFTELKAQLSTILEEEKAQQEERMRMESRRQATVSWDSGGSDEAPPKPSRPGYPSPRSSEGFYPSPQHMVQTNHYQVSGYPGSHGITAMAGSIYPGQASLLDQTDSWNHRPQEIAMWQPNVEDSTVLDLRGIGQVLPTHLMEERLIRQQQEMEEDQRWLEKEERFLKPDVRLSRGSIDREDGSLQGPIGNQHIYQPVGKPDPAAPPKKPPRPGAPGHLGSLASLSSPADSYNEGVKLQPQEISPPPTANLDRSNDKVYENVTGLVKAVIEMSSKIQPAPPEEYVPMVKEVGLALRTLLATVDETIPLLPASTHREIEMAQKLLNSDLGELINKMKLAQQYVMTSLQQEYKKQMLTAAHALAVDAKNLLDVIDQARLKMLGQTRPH
Sequence of human JAK2 (O60674 815-1132): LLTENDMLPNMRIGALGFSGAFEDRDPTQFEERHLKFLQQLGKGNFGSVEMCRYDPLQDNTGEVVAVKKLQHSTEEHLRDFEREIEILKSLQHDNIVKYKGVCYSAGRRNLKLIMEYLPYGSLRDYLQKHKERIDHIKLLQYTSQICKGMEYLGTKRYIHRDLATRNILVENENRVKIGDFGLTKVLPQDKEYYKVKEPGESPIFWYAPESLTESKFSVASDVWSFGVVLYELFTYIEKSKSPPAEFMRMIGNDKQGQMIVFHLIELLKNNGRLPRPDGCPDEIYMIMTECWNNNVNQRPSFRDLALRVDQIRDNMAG

With `COc1ccccc1-c1cccn2nc(Nc3ccc(N4CCOCC4)cc3)nc12` [Example 2, [8-(2-Methoxy-phenyl)-[1,2,4]triazolo[1,5-a]pyridin-2-yl]-(4-morpholin-4-yl-phenyl)-amine], the IC50 in assay [1] was 6500 nM; in assay [2], 20 nM.

In the case of `CS(=O)(=O)c1ccc(-c2cccn3nc(Nc4ccc(N5CCOCC5)cc4)nc23)cc1` [Example 4, [8-(4-Methanesulfonyl-phenyl)-[1,2,4]triazolo[1,5-a]pyridin-2-yl]-(4-morpholin-4-yl-phenyl)-amine], the IC50 stood at 461 nM in assay [1] and 0.9 nM in assay [2].

With `c1cncc(-c2cccn3nc(Nc4ccc(N5CCOCC5)cc4)nc23)c1` [Example 6, (4-Morpholin-4-yl-phenyl)-(8-pyridin-3-yl-[1,2,4]triazolo[1,5-a]pyridin-2-yl)-amine], the results for the IC50 in assay [1] and in assay [2] were 3000 nM and 25.9 nM, respectively.

For the molecule `COc1ccc(-c2cccn3nc(Nc4ccc(N5CCOCC5)cc4)nc23)cn1` [Example 8, [8-(6-Methoxy-pyridin-3-yl)-[1,2,4]triazolo[1,5-a]pyridin-2-yl]-(4-morpholin-4-yl-phenyl)-amine], the values for the IC50 in assay [1] and in assay [2] were 1480 nM and 13.4 nM, respectively.

Turning to `CS(=O)(=O)c1ccc(-c2cccn3nc(Nc4ccc(OCCN5CCCC5)cc4)nc23)cc1` [Example 10, [8-(4-Methanesulfonyl-phenyl)-[1,2,4]triazolo[1,5-a]pyridin-2-yl]-[4-(2-pyrrolidin-1-yl-ethoxy)-phenyl]-amine], the results for the IC50 in assay [1] and in assay [2] were 206 nM and 1 nM, respectively.

As for `c1cc(-c2ccncc2)c2nc(Nc3ccc(N4CCOCC4)cc3)nn2c1` [Example 11, (4-Morpholin-4-yl-phenyl)-(8-pyridin-4-yl-[1,2,4]triazolo[1,5-a]pyridin-2-yl)-amine], the figures for the IC50 in assay [1] and in assay [2] were 6500 nM and 5.5 nM, respectively.

`CS(=O)(=O)c1ccc(-c2cccc3nc(Nc4ccc(N5CCOCC5)cc4)nn23)cc1` [Example 12, [5-(4-Methanesulfonyl-phenyl)-[1,2,4]triazolo[1,5-a]pyridin-2-yl]-(4-morpholin-4-yl-phenyl)-amine]: the results for the IC50 in assay [1] and in assay [2] were 434 nM and 0.7 nM, respectively.

In the case of `CS(=O)(=O)c1cccc(-c2cccn3nc(Nc4ccc(OCCN5CCCC5)cc4)nc23)c1` [Example 13, [8-(3-Methanesulfonyl-phenyl)-[1,2,4]triazolo[1,5-a]pyridin-2-yl]-[4-(2-pyrrolidin-1-yl-ethoxy)-phenyl]-amine], the IC50 in assay [1] was determined as 524 nM; in assay [2], 3 nM.

With `COc1ccccc1Nc1nc2c(-c3cccc(C(F)(F)F)c3)cccn2n1` [Example 21, (2-Methoxy-phenyl)-[8-(3-trifluoromethyl-phenyl)-[1,2,4]triazolo[1,5-a]pyridin-2-yl]-amine], the IC50 in assay [2] came to 3000 nM.

As to `COc1ccccc1Nc1nc2c(-c3ccc(S(C)(=O)=O)cc3)cccn2n1` [Example 25, [8-(4-Methanesulfonyl-phenyl)-[1,2,4]triazolo[1,5-a]pyridin-2-yl]-(2-methoxy-phenyl)-amine], the IC50 in assay [2] amounted to 1320 nM.

Consider `CC1(C)CCC(C)(C)c2cc(Nc3nc4c(-c5ccc(S(C)(=O)=O)cc5)cccn4n3)ccc21` [Example 28, [8-(4-Methanesulfonyl-phenyl)-[1,2,4]triazolo[1,5-a]pyridin-2-yl]-(5,5,8,8-tetramethyl-5,6,7,8-tetrahydro-naphthalen-2-yl)-amine], for which the IC50 in assay [2] was found to be 27.7 nM.

With `COc1ccc(Nc2nc3c(N4CCN(C)CC4)cccn3n2)cc1` [Example 30, (4-Methoxy-phenyl)-[8-(4-methyl-piperazin-1-yl)-[1,2,4]triazolo[1,5-a]pyridin-2-yl]-amine], in assay [2], the IC50 is 441 nM.

For the molecule `COc1ccc(Nc2nc3c(N4CCN(S(C)(=O)=O)CC4)cccn3n2)cc1` [Example 33, [8-(4-Methanesulfonyl-piperazin-1-yl)-[1,2,4]triazolo[1,5-a]pyridin-2-yl]-(4-methoxy-phenyl)-amine], the IC50 in assay [2] turned out to be 60.4 nM.

For the molecule `COc1ccc(Nc2nc3c(C4=CCN(S(C)(=O)=O)CC4)cccn3n2)cc1` [Example 34, [8-(1-Methanesulfonyl-1,2,3,6-tetrahydro-pyridin-4-yl)-[1,2,4]triazolo[1,5-a]pyridin-2-yl]-(4-methoxy-phenyl)-amine], the concentration for half-maximal inhibition (IC50) in assay [2] was 1 nM.

On to `CN1CCN(c2ccc(Nc3nc4ccc(-c5ccc(S(C)(=O)=O)cc5)cn4n3)cc2)CC1` [Example 37, [6-(4-Methanesulfonyl-phenyl)-[1,2,4]triazolo[1,5-a]pyridin-2-yl]-[4-(4-methyl-piperazin-1-yl)-phenyl]-amine], for which the IC50 in assay [2] was found to be 2970 nM.

For `COc1ccc(Nc2nc3c(NC4CCN(S(C)(=O)=O)CC4)cccn3n2)cc1` [Example 41, N(8)-(1-Methanesulfonyl-piperidin-4-yl)-N(2)-(4-methoxy-phenyl)-[1,2,4]triazolo[1,5-a]pyridine-2,8-diamine], the IC50 in assay [2] came out at 375 nM.

Take `CS(=O)(=O)c1ccc(-c2cccn3nc(Nc4ccc(OS(=O)(=O)C(F)(F)C(F)(F)C(F)(F)C(F)(F)F)cc4)nc23)cc1` [Example 45, 1,1,2,2,3,3,4,4,4-Nonafluoro-butane-1-sulfonic acid 4-[8-(4-methanesulfonyl-phenyl)-[1,2,4]triazolo[1,5-a]pyridin-2-ylamino]-phenyl ester]: the IC50 in assay [2] worked out at 106 nM.

On to `CN1CCN(c2cccc(Nc3nc4c(-c5ccccc5S(C)(=O)=O)cccn4n3)c2)CC1` [Example 67, [8-(2-Methanesulfonyl-phenyl)-[1,2,4]triazolo[1,5-a]pyridin-2-yl]-[3-(4-methyl-piperazin-1-yl)-phenyl]-amine], for which, in assay [2], the IC50 is 2500 nM.

Take `CN1CCN(c2cccc(Nc3nc4c(Nc5ccccc5S(C)(=O)=O)cccn4n3)c2)CC1` [Example 68, N(8)-(2-Methanesulfonyl-phenyl)-N(2)-[3-(4-methyl-piperazin-1-yl)-phenyl]-[1,2,4]triazolo[1,5-a]pyridine-2,8-diamine]: the 50% inhibitory concentration (IC50) in assay [2] amounted to 29 nM.

For the molecule `CC(C)(C)OC(=O)N1CCN(c2ccc(Nc3nc4cccc(-c5ccccc5)n4n3)cc2)CC1` [Example 77, 4-[4-(5-Phenyl-[1,2,4]triazolo[1,5-a]pyridin-2-ylamino)-phenyl]-piperazine-1-carboxylic acid tert-butyl ester], the IC50 in assay [2] was found to be 6.6 nM.

Take `COc1cccc(Nc2nc3cccc(-c4cccc(S(C)(=O)=O)c4)n3n2)c1` [Example 79, [5-(3-Methanesulfonyl-phenyl)-[1,2,4]triazolo[1,5-a]pyridin-2-yl]-(3-methoxy-phenyl)-amine]: in assay [2], the IC50 was found to be 15.1 nM.

On to `COc1ccccc1Nc1nc2cccc(-c3cccc(S(C)(=O)=O)c3)n2n1` [Example 80, [5-(3-Methanesulfonyl-phenyl)-[1,2,4]triazolo[1,5-a]pyridin-2-yl]-(2-methoxy-phenyl)-amine], for which the IC50 in assay [2] was found to be 1210 nM.

As to `CN1CCN(c2ccc(NC(=O)Nc3nc4cccc(-c5ccc(S(C)(=O)=O)cc5)n4n3)cc2)CC1` [Example 90, 1-[5-(4-Methanesulfonyl-phenyl)-[1,2,4]triazolo[1,5-a]pyridin-2-yl]-3-[4-(4-methyl-piperazin-1-yl)-phenyl]-urea], the concentration for half-maximal inhibition (IC50) in assay [2] is 1530 nM.

As to `Cc1nn(C)c(C)c1Nc1nc2c(-c3ccc(S(C)(=O)=O)cc3)cccn2n1` [Example 210, [8-(4-Methanesulfonyl-phenyl)-[1,2,4]triazolo[1,5-a]pyridin-2-yl]-(1,3,5-trimethyl-1H-pyrazol-4-yl)-amine], the IC50 in assay [2] worked out at 3000 nM.

For the molecule `CN1CCN(c2cccc(Nc3nc4c(Oc5ccc(S(C)(=O)=O)cc5)cccn4n3)c2)CC1` [Example 214, [8-(4-Methanesulfonyl-phenoxy)-[1,2,4]triazolo[1,5-a]pyridin-2-yl]-[3-(4-methyl-piperazin-1-yl)-phenyl]-amine], the IC50 in assay [2] turned out to be 1650 nM.

As to `CC(C)(C)OC(=O)N1CCc2ccc(Nc3nc4c(-c5cccc6c5OC(F)(F)O6)cccn4n3)cc2CC1` [Example 243], the IC50 in assay [2] stood at 2110 nM.

In the case of `CN1CCN(c2ccc(Nc3nc4c(O)cccn4n3)cc2)CC1` [Example 264, 2-[4-(4-Methyl-piperazin-1-yl)-phenylamino]-[1,2,4]triazolo[1,5-a]pyridin-8-ol], the half-inhibitory concentration (IC50) in assay [2] amounted to 567 nM.

Take `Cc1cccn2nc(Nc3ccc(S(C)(=O)=O)cc3)nc12` [Example 265, (4-Methanesulfonyl-phenyl)-(8-methyl-[1,2,4]triazolo[1,5-a]pyridin-2-yl)-amine]: the IC50 in assay [2] was 2620 nM.

In the case of `CC(C)(C)OC(=O)N1CCc2ccc(Nc3nc4c(-c5cc(C(F)(F)F)ccc5F)cccn4n3)cc2CC1` [Example 269, [8-(2-Fluoro-5-trifluoromethyl-phenyl)-[1,2,4]triazolo[1,5-a]pyridin-2-ylamino]-[2,3,4,5-tetrahydro-1H-benzo[d]azopin-7-yl]-3-carboxylic acid tert-butyl ester], the IC50 in assay [2] was determined as 586 nM.

For the molecule `CC(C)(C)OC(=O)N1CCC(c2ccc(Nc3nc4c(-c5cnn(-c6ccc(F)cc6)c5)cccn4n3)cc2)CC1` [Example 280, 4-{4-[8-(1-(4-Fluoro-phenyl)-1H-pyrazol-4-yl)-[1,2,4]triazolo[1,5-a]pyridine-2-ylamino]-phenyl}-piperidine-1-carboxylic acid tert-butyl ester], the IC50 in assay [2] is 1110 nM.

As for `COc1cnc(-c2cccn3nc(Nc4ccc(C5CCN(C(=O)OC(C)(C)C)CC5)cc4)nc23)cn1` [Example 284, 4-{4-[8-(5-Methoxy-pyrazin-2-yl)-[1,2,4]triazolo[1,5-a]pyridine-2-ylamino]-phenyl}-piperidine-1-carboxylic acid tert-butyl ester], the IC50 in assay [2] was found to be 1490 nM.

`Cc1ccc(-n2cc(-c3cccn4nc(Nc5ccc(C6CCN(C(=O)OC(C)(C)C)CC6)cc5)nc34)cn2)cc1` [Example 287, 4-{4-[8-(1-p-Tolyl-1H-pyrazol-4-yl)-[1,2,4]triazolo[1,5-a]pyridine-2-ylamino]-phenyl}-piperidine-1-carboxylic acid tert-butyl ester]: the IC50 in assay [2] came out at 1690 nM.

Regarding `COc1ccc(C(F)(F)F)cc1Nc1cccn2nc(Nc3cccc(N4CCN(C)CC4)c3)nc12` [Example 290, N(8)-(2-Methoxy-5-trifluoromethyl-phenyl)-N(2)-[3-(4-methyl-piperazin-1-yl)-phenyl]-[1,2,4]triazolo[1,5-a]pyridine-2,8-diamine], the IC50 in assay [2] was determined as 3000 nM.

For orientation: IC50 means the midpoint of a concentration-inhibition curve.

The values are drawn from patent US8501936B2 (priority 2009, dated 2013).
